Test results reported in US20260317314A1, “NITROGEN-CONTAINING HETEROCYCLIC COMPOUND AND USE THEREOF” (JIANGSU DEYUAN PHARMACEUTICAL CO.,LTD., priority 2023, published 2026).

How the values were obtained:
[1] = Permeability test in MDR1-MDCKII monolayer cell model; type: in vitro ADME; conditions: dog; for efflux ratio at 2.5 h, 2 µM: MDCK-MDR1, pH 7.4, ER=Papp(BA)/Papp(AB); for Papp A→B at 2.5 h, 2 µM: MDCK-MDR1, pH 7.4, pH 7.40, 2.5 hours, 37±1° C., read-out: Apparent permeability coefficient (Papp (AB))
Procedure: Experimental objective: The permeability and efflux ratio of the compound of the present disclosure were determined using the MDR1-MDCKII monolayer cell model to assess its membrane permeability and potential for P-gp-mediated efflux transport.
Experimental protocol: MDR1-MDCKII cells (obtained from the Netherlands Cancer Institute) were seeded in 96-well plates (obtained from Corning) at a cell density of 3.33×10^5 cells/mL and cultured for 4 to 7 days to form confluent cell monolayers. Hank's balanced salt solution containing 10 mM HEPES (pH 7.40) was used as the transport buffer. The test compound was evaluated for bidirectional transport at a concentration of 2 μM, with the DMSO concentration in the incubation system maintained below 1%. After adding the samples, the cell plate was incubated at 37±1° C., 5% CO2, and saturated humidity for 2.5 hours. All samples were quantitatively analyzed using the LC-MS/MS method. The apparent permeability coefficient (Papp, cm/s) and efflux ratio (ER) were calculated using the following formula. Apparent permeability coefficient (Papp, cm/s) was calculated using the following formula: Papp=(dCr/dt)×Vr/(A×C0). Herein, dCr/dt represents the cumulative concentration of the compound at the receiving end per unit time (μM/s); Vr is the volume of the solution at the receiving end (with solution volumes at the apical and basolateral ends being 0.075 mL and 0.250 mL, respectively); A is the relative surface area of the cell monolayer (0.143 cm^2); C0 is the initial concentration of the test substance at the dosing end (μM) or the peak area ratio of the reference substance. The efflux ratio was calculated using the following formula: ER=Papp(BA)/Papp(AB).

[2] = In vitro liver microsome metabolic stability study; type: in vitro ADME; conditions: human liver microsomes 0.5 mg/mL, compound 1 μM, 37° C., up to 60 minutes; read-out: Intrinsic hepatic clearance CLint(liver)
Procedure: Stock solution: 10 mM in DMSO.
Only 54 μL of microsomal working solution, 6 μL of NADPH regeneration system working solution, and 180 μL of stop solution were added to the blank plate.
LC-MS/MS analysis was performed.

[3] = Plasma protein binding rate test, SD rat (equilibrium dialysis); type: in vitro ADME; conditions: 37° C., read-out: Plasma protein binding rate (%) in SD rats (converted)
Description: (§1) The sample was thoroughly mixed.

[4] = Plasma protein binding rate test, cynomolgus monkey (equilibrium dialysis); type: in vitro ADME; conditions: 37° C., read-out: Plasma protein binding rate (%) in cynomolgus monkeys (converted)
Description: as §1

[5] = Plasma protein binding rate test, human (equilibrium dialysis); type: in vitro ADME; conditions: 37° C.
Description: as §1

CYP1A2 = target: T1, CYP1A2 (Homo sapiens, UniProt P05177); experiment: Human liver microsome CYP inhibition assay, CYP1A2; type: in vitro ADME; conditions: role: inhibitor; human liver microsomes, probe substrate; read-out: CYP1A2 half maximal inhibitory concentration IC50
T1 construct: Mixed human liver microsomes (HLM) were purchased from Corning Inc; tissue Corning Inc; host or cells: mixed human liver microsomes (HLM)
T1 sequence (P05177 1-516): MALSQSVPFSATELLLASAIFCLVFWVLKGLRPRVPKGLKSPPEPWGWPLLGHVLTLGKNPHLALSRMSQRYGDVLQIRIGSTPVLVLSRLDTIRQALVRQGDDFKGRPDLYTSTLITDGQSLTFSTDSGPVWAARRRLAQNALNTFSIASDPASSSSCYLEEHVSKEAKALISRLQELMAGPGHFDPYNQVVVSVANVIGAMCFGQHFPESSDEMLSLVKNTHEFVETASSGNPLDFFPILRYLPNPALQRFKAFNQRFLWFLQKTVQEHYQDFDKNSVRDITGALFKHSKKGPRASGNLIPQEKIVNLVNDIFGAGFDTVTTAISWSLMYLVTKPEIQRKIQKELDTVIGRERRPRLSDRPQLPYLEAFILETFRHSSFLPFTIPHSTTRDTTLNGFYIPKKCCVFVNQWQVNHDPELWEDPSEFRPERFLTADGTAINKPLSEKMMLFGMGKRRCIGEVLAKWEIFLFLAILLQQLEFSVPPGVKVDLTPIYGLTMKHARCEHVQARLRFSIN
Procedure: (§2) Experimental objective: To evaluate the inhibitory activity of the test substance on human liver microsomal cytochrome P450 isoenzymes (CYP1A2, CYP2C9, CYP2C19, CYP2D6, CYP3A4) using a 5-in-1 probe substrate for CYP isoenzymes.
(§3) Mixed human liver microsomes (HLM) were purchased from Corning Inc. (Steuben, New York, USA) and stored at temperatures below −70° C. prior to use.
(§4) The working solution of the test substance, which had been diluted to a series of concentrations, was added to an incubation system containing human liver microsomes, probe substrates, and auxiliary factors of the circulatory system. A control containing solvent but no test substance served as an enzyme activity control (100%). The concentration of metabolites produced from probe substrates in the samples was determined using Liquid Chromatography-Tandem Mass Spectrometry (LC-MS/MS) method. Non-linear regression analysis of the average percentage activity of the test substance against its concentration was conducted using SigmaPlot (V.11). The IC50 values were calculated using a three-parameter or four-parameter inverse log equation.

CYP2C9 = target: T2, CYP2C9 (Homo sapiens, UniProt P11712); experiment: Human liver microsome CYP inhibition assay, CYP2C9; type: in vitro ADME; conditions: role: inhibitor; human liver microsomes, probe substrate; read-out: CYP2C9 half maximal inhibitory concentration IC50
T2 construct: Mixed human liver microsomes (HLM) were purchased from Corning Inc; tissue Corning Inc; host or cells: mixed human liver microsomes (HLM)
Procedure: as §2, §3, §4

CYP2C19 = target: T3, CYP2C19 (Homo sapiens, UniProt P33261); experiment: Human liver microsome CYP inhibition assay, CYP2C19; type: in vitro ADME; conditions: role: inhibitor; human liver microsomes, probe substrate; read-out: CYP2C19 half maximal inhibitory concentration IC50
T3 construct: Mixed human liver microsomes (HLM) were purchased from Corning Inc; tissue Corning Inc; host or cells: mixed human liver microsomes (HLM)
Procedure: as §2, §3, §4

CYP2D6 = target: T4, CYP2D6 (Homo sapiens, UniProt P10635); experiment: Human liver microsome CYP inhibition assay, CYP2D6; type: in vitro ADME; conditions: role: inhibitor; human liver microsomes, probe substrate; read-out: CYP2D6 half maximal inhibitory concentration IC50
T4 construct: Mixed human liver microsomes (HLM) were purchased from Corning Inc; tissue Corning Inc; host or cells: mixed human liver microsomes (HLM)
Procedure: as §2, §3, §4

CYP3A4 = target: T5, CYP3A4 (Homo sapiens, UniProt P08684); experiment: Human liver microsome CYP inhibition assay, CYP3A4; type: in vitro ADME; conditions: role: inhibitor; human liver microsomes, probe substrate; read-out: CYP3A4 half maximal inhibitory concentration IC50
T5 construct: Mixed human liver microsomes (HLM) were purchased from Corning Inc; tissue Corning Inc; host or cells: mixed human liver microsomes (HLM)
Procedure: as §2, §3, §4

[6] = In vivo pharmacokinetics study in rats; set-up: species or system SD rat; conditions: rat, plasma, male SD rats, oral 2 mg/kg

T3 sequence (P33261 whole entry): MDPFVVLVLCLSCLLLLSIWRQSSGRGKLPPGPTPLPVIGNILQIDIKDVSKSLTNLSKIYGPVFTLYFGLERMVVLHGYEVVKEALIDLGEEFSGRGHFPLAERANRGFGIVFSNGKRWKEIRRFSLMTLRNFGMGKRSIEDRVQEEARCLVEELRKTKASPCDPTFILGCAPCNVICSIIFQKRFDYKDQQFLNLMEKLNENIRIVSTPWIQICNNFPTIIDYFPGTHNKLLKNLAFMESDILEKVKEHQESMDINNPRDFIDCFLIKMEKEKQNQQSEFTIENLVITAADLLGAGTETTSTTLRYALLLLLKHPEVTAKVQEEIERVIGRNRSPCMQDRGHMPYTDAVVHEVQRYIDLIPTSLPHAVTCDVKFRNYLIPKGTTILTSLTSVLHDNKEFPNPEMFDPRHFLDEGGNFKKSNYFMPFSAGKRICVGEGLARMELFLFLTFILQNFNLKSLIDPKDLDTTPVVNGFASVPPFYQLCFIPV
T2 sequence (P11712 whole entry): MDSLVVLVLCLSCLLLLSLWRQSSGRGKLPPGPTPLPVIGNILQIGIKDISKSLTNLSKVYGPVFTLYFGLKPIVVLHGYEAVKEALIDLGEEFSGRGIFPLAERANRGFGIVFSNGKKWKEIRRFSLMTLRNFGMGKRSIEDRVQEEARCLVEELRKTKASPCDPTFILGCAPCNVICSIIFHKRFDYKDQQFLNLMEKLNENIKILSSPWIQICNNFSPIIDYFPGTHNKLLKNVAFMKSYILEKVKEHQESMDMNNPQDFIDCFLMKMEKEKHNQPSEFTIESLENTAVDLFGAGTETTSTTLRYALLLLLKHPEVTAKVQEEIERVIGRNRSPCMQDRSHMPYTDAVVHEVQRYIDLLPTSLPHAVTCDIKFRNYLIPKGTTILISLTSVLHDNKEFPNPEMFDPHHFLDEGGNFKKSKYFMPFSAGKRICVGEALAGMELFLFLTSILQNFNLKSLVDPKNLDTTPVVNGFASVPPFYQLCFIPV
T5 sequence (P08684 whole entry): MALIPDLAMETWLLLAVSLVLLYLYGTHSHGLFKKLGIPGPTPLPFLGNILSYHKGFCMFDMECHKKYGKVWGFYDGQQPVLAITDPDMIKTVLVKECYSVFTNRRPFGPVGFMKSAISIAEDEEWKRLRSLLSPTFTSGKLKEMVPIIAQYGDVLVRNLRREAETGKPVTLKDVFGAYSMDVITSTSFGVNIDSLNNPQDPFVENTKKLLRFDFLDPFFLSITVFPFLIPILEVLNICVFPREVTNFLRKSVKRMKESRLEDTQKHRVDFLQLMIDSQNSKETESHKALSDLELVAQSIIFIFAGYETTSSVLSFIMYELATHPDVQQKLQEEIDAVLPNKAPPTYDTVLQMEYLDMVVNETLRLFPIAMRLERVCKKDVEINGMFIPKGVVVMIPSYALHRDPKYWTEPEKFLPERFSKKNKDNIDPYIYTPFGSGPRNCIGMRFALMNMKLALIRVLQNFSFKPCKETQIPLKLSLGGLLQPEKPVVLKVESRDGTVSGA
T4 sequence (P10635 whole entry): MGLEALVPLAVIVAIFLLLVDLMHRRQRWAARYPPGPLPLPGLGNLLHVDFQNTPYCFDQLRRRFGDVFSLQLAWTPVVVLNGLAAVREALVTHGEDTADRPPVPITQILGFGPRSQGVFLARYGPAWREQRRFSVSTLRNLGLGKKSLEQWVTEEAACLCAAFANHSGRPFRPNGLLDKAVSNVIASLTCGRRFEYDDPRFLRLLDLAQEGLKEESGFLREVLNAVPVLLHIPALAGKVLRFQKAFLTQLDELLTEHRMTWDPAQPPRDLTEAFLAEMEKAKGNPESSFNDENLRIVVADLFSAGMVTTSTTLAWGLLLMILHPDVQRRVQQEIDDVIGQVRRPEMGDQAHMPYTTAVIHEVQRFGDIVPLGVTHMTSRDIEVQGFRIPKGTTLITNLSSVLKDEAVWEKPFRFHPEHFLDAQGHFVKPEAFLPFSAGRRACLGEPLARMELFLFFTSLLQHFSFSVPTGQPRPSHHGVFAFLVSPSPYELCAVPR

efflux ratio at 2.5 h, 2 µM [1]	Papp A→B at 2.5 h, 2 µM [1] [×10⁻⁶ cm/s]	CLint scaled at 1 µM [2] [mL/min/kg]	fraction unbound at 4 h [3]	fraction unbound at 4 h [4]	fraction unbound at 4 h [5]	IC50 (CYP1A2) [µM]	IC50 (CYP2C9) [µM]	IC50 (CYP2C19) [µM]	IC50 (CYP2D6) [µM]	IC50 (CYP3A4) [µM]	bioavailability [6] [%]	half-life [6] [h]	Cmax [6] [µM]	AUC(0-t) at 24 h ([6]; read-out: AUC0-24 h) [µM·h]	SMILES
0.89	24.3	< 8.6	0.139	0.245	0.245	> 50	> 50	> 50	> 50	> 50					CCC(=O)NC1CCCc2c(-c3ccc4c(c3)OCC(=O)N4C)cncc21 (single isomer, unassigned) [Compound 011]
1.17	18	< 8.6		0.304	0.166	> 50	> 50	> 50	> 50	> 50	71	3.23	7.86	36.6	CCC(=O)NC1CCOc2c(-c3cc4c(s3)N(C)C(=O)CC4)cncc21 (single isomer, unassigned) [Compound 046]
